Reference: patent US20250276979A1, “SARS-COV2 MAIN PROTEASE INHIBITORS” (Gilead Sciences, Inc., priority 2024, published 2025)
Where two headings read alike, the source gives them in different places.

Tested on: SARS-CoV-2-NLuc in A549-hACE2 cells
Assay: microbe, parasite or virus in culture
Type: cell-based
[1] = Severe acute respiratory syndrome coronavirus 2, 48 h; read-out: MPro EC50

| SMILES | EC50 [1] | EC50 (Severe acute respiratory syndrome coronavirus 2, 48 h, read-out: MPro EC50) |
| --- | --- | --- |
| COc1cc(-c2cc3c(s2)c(=O)n([C@@H]2CCCNC(=O)C2)c(=O)n3Cc2ncn(C)n2)c(Cl)cc1F [Example 41, (R)-6-(2-chloro-4-fluoro-5-methoxyphenyl)-1-((1-methyl-11H-1,2,4-triazol-3-yl)methyl)-3-(2-oxoazepan-4-yl)thieno[3,2-d]pyrimidine-2,4(1H,3H)-dione] | 0.358 µM |  |
| COc1cc(-c2cc3c(s2)c(=O)n([C@@H]2CCCNC(=O)C2)c(=O)n3CCNC(C)=O)c(Cl)cc1F [Example 37, (R)—N-(2-(6-(2-chloro-4-fluoro-5-methoxyphenyl)-2,4-dioxo-3-(2-oxoazepan-4-yl)-3,4-dihydrothieno[3,2-d]pyrimidin-1(2H)-yl)ethyl)acetamide] | 0.17 µM |  |
| N#CCCn1c(=O)n([C@@H]2CCCNC(=O)C2)c(=O)c2sc(-c3ccccc3Cl)cc21 [Example 51, (R)-3-(6-(2-chlorophenyl)-2,4-dioxo-3-(2-oxoazepan-4-yl)-3,4-dihydrothieno[3,2-d]pyrimidin-1(2H)-yl)propanenitrile] | 0.098 µM |  |
| COc1cc(-c2cc3c(s2)c(=O)n([C@H]2CCCNC(=O)C2)c(=O)n3C)c(Cl)cc1F [Example 33, (S)-6-(2-chloro-4-fluoro-5-methoxyphenyl)-1-methyl-3-(2-oxoazepan-4-yl)thieno[3,2-d]pyrimidine-2,4(1H,3H)-dione] | 0.747 µM |  |
| COc1cc(-c2cc3[nH]c(=O)n([C@@H]4CCCNC(=O)C4)c(=O)c3s2)c(Cl)cc1Cl [Example 47, (R)-6-(2,4-dichloro-5-methoxyphenyl)-3-(2-oxoazepan-4-yl)thieno[3,2-d]pyrimidine-2,4(1H,3H)-dione] | 0.0277 µM |  |
| COc1cc(-c2cc3c(s2)c(=O)n([C@@H]2CCCNC(=O)C2)c(=O)n3CC#N)c(Cl)cc1F [Example 34, (R)-2-(6-(2-chloro-4-fluoro-5-methoxyphenyl)-2,4-dioxo-3-(2-oxoazepan-4-yl)-3,4-dihydrothieno[3,2-d]pyrimidin-1(2H)-yl)acetonitrile] | 0.00303 µM |  |
| COc1cnc(Cl)c(-c2cc3c(s2)c(=O)n([C@@H]2CCCNC(=O)C2)c(=O)n3CCC#N)c1 [Example 50, (R)-3-(6-(2-chloro-5-methoxypyridin-3-yl)-2,4-dioxo-3-(2-oxoazepan-4-yl)-3,4-dihydrothieno[3,2-d]pyrimidin-1(2H)-yl)propanenitrile] | > 1 µM |  |
| O=C1CC(n2c(=O)[nH]c3cc(-c4c(Cl)cccc4-c4ccc5c(c4)OC(F)(F)O5)sc3c2=O)CCN1 (centres unmarked) [Example 13, 6-(2-chloro-6-(2,2-difluorobenzo[d][1,3]dioxol-5-yl)phenyl)-3-(2-oxopiperidin-4-yl)thieno[3,2-d]pyrimidine-2,4(1H,3H)-dione] | 0.157 µM |  |
| COc1ccc(Cl)c(-c2cc3[nH]c(=O)n([C@H]4CCCNC(=O)C4)c(=O)c3s2)c1 (single isomer, unassigned) [Example 24] |  | 0.142 µM |
| COc1cc(-c2cc3[nH]c(=O)n([C@H]4CNC(=O)C4)c(=O)c3o2)c(Cl)cc1F [Example 57, 6-(2-chloro-4-fluoro-5-methoxy-phenyl)-3-[(3R)-5-oxopyrrolidin-3-yl]-1H-furo[3,2-d]pyrimidine-2,4-dione] | > 1 µM |  |
| COc1cc(-c2cc3[nH]c(=O)n([C@@H]4CC(=O)NC[C@H](C)C4)c(=O)c3s2)c(Cl)cc1F (single isomer, unassigned) [Example 54] | 0.0204 µM |  |
